From PubChem BioAssay (NCI)
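Test compounds were applied to cells in 96-well plates for 48 hours at 5 doses. GI50 = concentration required for 50% inhibition of growth. At the TGI there is no net growth.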

How the values were obtained:
Experiment in all cases: DTP human tumour cell line panel, 48 h
786-0 renal = test system: 786-0 renal
A498 renal = test system: A498 renal
A549 NSCLC = test system: A549 NSCLC
ACHN renal = test system: ACHN renal
BT-549 breast = test system: BT-549 breast
CAKI-1 renal = test system: CAKI-1 renal
CCRF-CEM leukemia = test system: CCRF-CEM leukemia
COLO 205 colon = test system: COLO 205 colon
DU-145 prostate = test system: DU-145 prostate
EKVX NSCLC = test system: EKVX NSCLC
HCC-2998 colon = test system: HCC-2998 colon
HCT-116 colon = test system: HCT-116 colon
HCT-15 colon = test system: HCT-15 colon
HL-60(TB) leukemia = test system: HL-60(TB) leukemia
HOP-62 NSCLC = test system: HOP-62 NSCLC
HOP-92 NSCLC = test system: HOP-92 NSCLC
HS 578T breast = test system: HS 578T breast
HT29 colon = test system: HT29 colon
IGROV1 ovarian = test system: IGROV1 ovarian
K-562 leukemia = test system: K-562 leukemia
KM12 colon = test system: KM12 colon
LOX IMVI melanoma = test system: LOX IMVI melanoma
M14 melanoma = test system: M14 melanoma
MALME-3M melanoma = test system: MALME-3M melanoma
MCF7 breast = test system: MCF7 breast
MDA-MB-231 breast = test system: MDA-MB-231 breast
MDA-MB-435 = test system: MDA-MB-435
MOLT-4 leukemia = test system: MOLT-4 leukemia

In the case of `COc1cc(NC(C)CCCN2C(=O)c3ccccc3C2=O)c2ncccc2c1OC` (stereo unspecified), the GI50 (786-0 renal) was 54.1 µM, the TGI (786-0 renal) was > 100 µM and the GI50 (A498 renal) was 34.4 µM. The TGI (A498 renal) was > 100 µM, the GI50 (A549 NSCLC) was 33 µM and the TGI (A549 NSCLC) was > 100 µM. For the same compound, the GI50 (ACHN renal) was 29.9 µM, the TGI (ACHN renal) was > 100 µM and the GI50 (BT-549 breast) was 23.4 µM. It also gave a TGI (BT-549 breast) of 83.7 µM, a GI50 (CAKI-1 renal) of 29.5 µM and a TGI (CAKI-1 renal) of 74.4 µM. For the same compound, the GI50 (CCRF-CEM leukemia) was 49.2 µM, the TGI (CCRF-CEM leukemia) was > 100 µM and the GI50 (COLO 205 colon) was 31.9 µM. The TGI (COLO 205 colon) was > 100 µM, the GI50 (DU-145 prostate) was 41.9 µM and the TGI (DU-145 prostate) was > 100 µM. For the same compound, the GI50 (EKVX NSCLC) was 29.7 µM, the TGI (EKVX NSCLC) was > 100 µM and the GI50 (HCC-2998 colon) was 33.1 µM. The TGI (HCC-2998 colon) was > 100 µM, the GI50 (HCT-116 colon) was 31.2 µM and the TGI (HCT-116 colon) was > 100 µM. The GI50 (HCT-15 colon) was 28.4 µM, the TGI (HCT-15 colon) was > 100 µM and the GI50 (HL-60(TB) leukemia) was 15.2 µM. The TGI (HL-60(TB) leukemia) was > 100 µM, the GI50 (HOP-62 NSCLC) was 52.6 µM and the TGI (HOP-62 NSCLC) was > 100 µM. For the same compound, the GI50 (HOP-92 NSCLC) was 18.2 µM, the TGI (HOP-92 NSCLC) was > 100 µM and the GI50 (HS 578T breast) was 24.5 µM. The TGI (HS 578T breast) was 97.3 µM, the GI50 (HT29 colon) was 36.3 µM and the TGI (HT29 colon) was > 100 µM. The GI50 (IGROV1 ovarian) was 18.6 µM, the TGI (IGROV1 ovarian) was > 100 µM and the GI50 (K-562 leukemia) was 83.9 µM. For the same compound, the TGI (K-562 leukemia) was > 100 µM, the GI50 (KM12 colon) was 29.7 µM and the TGI (KM12 colon) was > 100 µM. The GI50 (LOX IMVI melanoma) was 28.2 µM, the TGI (LOX IMVI melanoma) was > 100 µM and the GI50 (M14 melanoma) was 30.5 µM. The TGI (M14 melanoma) was > 100 µM, the GI50 (MALME-3M melanoma) was 22.9 µM and the TGI (MALME-3M melanoma) was 58.3 µM. For the same compound, the GI50 (MCF7 breast) was 10.9 µM, the TGI (MCF7 breast) was > 100 µM and the GI50 (MDA-MB-231 breast) was 31.8 µM. For the same compound, the TGI (MDA-MB-231 breast) was > 100 µM, the GI50 (MDA-MB-435) was 34.2 µM and the TGI (MDA-MB-435) was > 100 µM. For the same compound, the GI50 (MOLT-4 leukemia) was 38.3 µM and the TGI (MOLT-4 leukemia) was > 100 µM.
